From ChEMBL document CHEMBL5647696, “Are all cyclin-dependent kinases 4/6 inhibitors created equal?” (NPJ Breast Cancer, 2019) come the findings set out here.

The Vd is the apparent volume that relates the amount in the body to the concentration in plasma or blood. The term Tmax denotes the time at which the peak concentration occurs. Usually bioavailability stands for dose-corrected exposure relative to a reference, in per cent.

Series [1] is described as follows: Volume of distribution in human. The format is ADME.
Series [2] is described as follows: Drug excretion in human feces. The conditions noted are these: faeces, read-out: Drug excretion. The format is ADME, tissue-based.
The nature of series [3]: Drug excretion in human urine. It counts as ADME, tissue-based. The following applies: read-out: Drug excretion.
Series [4] in a line: Time to reach peak level in human. It counts as ADME.
A short description of series [5]: Elimination half life in human. The conditions noted are these: read-out: beta t1/2 (converted). The format is ADME.
Series [6] can be described thus: Bioavailability in human. It counts as ADME, organism-based. The following applies: in vivo.
Series [7] in a line: Protein binding in human plasma. It counts as ADME, cell-free. The conditions noted are these: read-out: PPB (converted).

As for `CN(C)C(=O)c1cc2cnc(Nc3ccc(N4CCNCC4)cn3)nc2n1C1CCCC1` [RIBOCICLIB], the volume of distribution (Vd) in series [1] amounted to 1090 L. In addition, the dose excreted in series [2] was 69%; in series [3] it was 23%. Further, the Tmax in series [4] stood at 1 h. In addition, the half-life in series [5] was 30 h.

In series [1], `CC(=O)c1c(C)c2cnc(Nc3ccc(N4CCNCC4)cn3)nc2n(C2CCCC2)c1=O` [PALBOCICLIB] returned a Vd of 2580 L. In series [4], the time to peak (Tmax) was 6 h. For the same compound, in series [5], the half-life was 29 h.

Take `CCN1CCN(Cc2ccc(Nc3ncc(F)c(-c4cc(F)c5nc(C)n(C(C)C)c5c4)n3)nc2)CC1` [ABEMACICLIB]: the Vd in series [1] stood at 690 L. Further, the values for the dose excreted in series [2] and in series [3] were 81% and 3%, respectively. Also, the bioavailability in series [6] turned out to be 45%. In addition, the time to peak (Tmax) in series [4] is 8 h. For the same compound, the fraction unbound in series [7] is 0.07.
